Laboratory results published in ChEMBL document CHEMBL3727366, “Heterocyclic compounds for the treatment of stress-related conditions” (2013).
pIC50, pKi: −log10 of the molar value. Active and inactive are the calls of the source. How the calls were made is not given here.

Experiments:
[1] = biological target: T1, Prolactin-releasing peptide receptor (Homo sapiens, UniProt P49683); test: Displacement of [3H]-PrRP from human GPR10 receptor expressed in HEK293 cell membranes incubated for 90 mins by liquid scintillation counting method
T1 sequence (P49683 whole entry): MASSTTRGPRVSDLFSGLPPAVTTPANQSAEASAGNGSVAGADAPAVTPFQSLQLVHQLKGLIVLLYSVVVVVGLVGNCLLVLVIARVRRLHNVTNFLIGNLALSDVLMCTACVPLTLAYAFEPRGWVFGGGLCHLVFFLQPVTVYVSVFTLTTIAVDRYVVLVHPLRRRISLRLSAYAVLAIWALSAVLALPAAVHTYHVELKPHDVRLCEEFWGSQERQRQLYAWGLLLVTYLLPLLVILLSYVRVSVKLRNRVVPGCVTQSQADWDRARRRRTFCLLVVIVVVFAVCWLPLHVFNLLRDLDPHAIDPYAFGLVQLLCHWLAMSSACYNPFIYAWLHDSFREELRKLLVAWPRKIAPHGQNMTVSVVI

[2] = biological target: T1, Prolactin-releasing peptide receptor; test: Antagonist activity against human GPR10 receptor expressed in HEK293 cells assessed as inhibition of PrRP-induced intracellular calcium mobilization pre-incubated for 15 mins before PrRP addition by Fluo-8 dye based fluorescence imaging plate reader method; assay type: functional, cell-based
Rattus norvegicus [3] = test: Inhibition of restraint stress-induced defecation in Wistar rat at 5 mL/kg, po dosed 1 or 2 hrs before restraint stress; assay type: functional, organism-based
Rattus norvegicus [4] = test: Inhibition of tail-pinch stress-induced feeding behavior in Wistar rat at 5 mL/kg, po dosed 1 or 2 hrs before tail-pinch stimulus; assay type: functional, organism-based

| SMILES | pKi [1] | pIC50 [2] | inhibition (Rattus norvegicus [3]) | inhibition (Rattus norvegicus [4]) |
| --- | --- | --- | --- | --- |
| COn1c(N[C@@H](C)c2ccc(C(F)(F)F)cc2)nc2c(c1=O)CN(C(=O)c1ccc(C)c(C)c1)CC2 | 8.40 | 5.99 | Active | Active |
| CCOn1c(N[C@@H](C)c2ccc(C(F)(F)F)cc2)nc2c(c1=O)CN(C(=O)c1ccc(C#N)cc1)CC2 | 7.96 | 6.81 | Active | Active |
| C[C@H](Nc1nc2c(c(=O)n1N1CCCC1)CN(C(=O)c1ccc(C#N)cc1F)CC2)c1ccc(C(F)(F)F)cc1 | 8.22 | 6.53 | Active | Active |
| COc1ccc2oc(C(=O)N3CCc4nc(N[C@@H](C)c5ccc(C(F)(F)F)cc5)n(OC)c(=O)c4C3)cc2c1 | 7.85 | – | Active | Active |
| COn1c(N[C@H](c2ccc(Cl)cc2)C(C)C)nc2c(c1=O)CN(C(=O)c1ccc3c(c1)OCCO3)CC2 | 7.38 | – | Active | Active |
| COn1c(N[C@@H](C)c2ccc(C(F)(F)F)cc2)nc2c(c1=O)CN(C(=O)c1ccc3c(c1)OCCO3)CC2 | 8.00 | – | Active | Active |
| COn1c(N[C@@H](C)c2ccc(C(F)(F)F)cc2)nc2c(c1=O)CN(C(=O)c1ccc(C)c(F)c1)CC2 | 8.10 | – | Active | Active |
| COn1c(N[C@@H](C)C2CCCCC2)nc2c(c1=O)CN(C(=O)c1ccc(C#N)cc1F)CC2 | 7.25 | – | Active | Active |
| CCOn1c(N[C@@H](C)c2ccc(C(F)(F)F)cc2)nc2c(c1=O)CN(C(=O)c1ccc(-c3cnco3)cc1)CC2 | 7.70 | 6.80 | Active | Active |
| CC(C)COn1c(N[C@@H](C)c2ccc(C(F)(F)F)cc2)nc2c(c1=O)CN(C(=O)c1ccc(C#N)cc1F)CC2 | 7.48 | – | Active | Active |
| COn1c(NC(C)c2ccc(Cl)cc2)nc2c(c1=O)CN(C(=O)COc1ccc(Cl)cc1)CC2 (single isomer, unassigned) | 7.82 | 5.93 | Active | Active |
| CC[C@H](Nc1nc2c(c(=O)n1OC)CN(C(=O)c1ccc(C#N)cc1F)CC2)c1ccc(C(F)(F)F)cc1 | 8.10 | – | Active | Active |
| COn1c(N[C@@H](C)c2ccc(C(F)(F)F)cc2)nc2c(c1=O)CN(C(=O)CCc1ccc(Cl)cc1)CC2 | 6.87 | 5.41 | Active | Active |
| C[C@H](Nc1nc2c(c(=O)n1N1CCOCC1)CN(C(=O)c1ccc(C#N)cc1F)CC2)c1ccc(C(F)(F)F)cc1 | 8.52 | 6.73 | Active | Active |
| COn1c(N[C@H](c2ccc(Cl)cc2)C(C)C)nc2c(c1=O)CN(C(=O)c1ccc3c(c1)CCC(=O)N3C)CC2 | 7.62 | – | Active | Active |
| COn1c(N[C@@H](C)c2ccc(C(F)(F)F)cc2)nc2c(c1=O)CN(C(=O)c1ccc(Cl)o1)CC2 | 7.32 | – | Active | Active |
| COn1c(N[C@@H](C)c2ccc(C(F)(F)F)cc2)nc2c(c1=O)CN(C(=O)c1cc3occc3n1C)CC2 | 8.00 | – | Active | Active |

| SMILES | pKi [1] | pIC50 [2] | inhibition (Rattus norvegicus [3]) | inhibition (Rattus norvegicus [4]) |
| --- | --- | --- | --- | --- |
| COn1c(N[C@H](c2ccc(Cl)cc2)C(C)C)nc2c(c1=O)CN(C(=O)c1cc3ccccc3cn1)CC2 | 7.59 | – | Active | Active |
| CCOn1c(N[C@@H](C)c2ccc(C(F)(F)F)cc2)nc2c(c1=O)CN(C(=O)c1ccc(C#N)cc1F)CC2 | 8.30 | 6.64 | Active | Active |
| COn1c(N[C@@H](C)c2ccc(C(F)(F)F)cc2)nc2c(c1=O)CN(C(=O)c1cc3cccnc3s1)CC2 | 8.05 | – | Active | Active |
| CCOn1c(N[C@@H](C)c2ccc(C(F)(F)F)cc2)nc2c(c1=O)CN(C(=O)c1cc3cccnc3s1)CC2 | 7.77 | 5.77 | Active | Active |
| COn1c(N[C@@H](C)C2CCCCC2)nc2c(c1=O)CN(C(=O)c1ccc(Cl)cc1)CC2 | 6.97 | – | Active | Active |
| C[C@H](Nc1nc2c(c(=O)n1N1CCCC1)CN(C(=O)c1ccc(C#N)cc1)CC2)c1ccc(C(F)(F)F)cc1 | 8.00 | 6.19 | Active | Active |
| COn1c(N[C@@H](C)c2ccc(C(F)(F)F)cc2)nc2c(c1=O)CN(C(=O)c1ccc(Cl)s1)CC2 | 7.82 | 5.06 | Active | Active |
| COn1c(N[C@H](C)C2CCCCC2)nc2c(c1=O)CN(C(=O)c1ccc(C#N)cc1F)CC2 | 7.21 | – | Active | Active |
| COc1ccc(C(=O)N2CCc3nc(N[C@@H](C)c4ccc(C(F)(F)F)cc4)n(OC)c(=O)c3C2)c(OC)n1 | 8.15 | 6.64 | Active | Active |
| COn1c(N[C@@H](C)c2ccc(C(F)(F)F)cc2)nc2c(c1=O)CN(C(=O)/C=C/c1ccc(Cl)cc1)CC2 | 7.92 | 5.24 | Active | Active |
| COn1c(N[C@H](c2ccc(Cl)cc2)C(C)C)nc2c(c1=O)CN(C(=O)c1ccc(-n3ccnc3)cc1)CC2 | 7.51 | – | Active | Active |
| CCOn1c(N[C@@H](C)c2ccc(C(F)(F)F)cc2)nc2c(c1=O)CN(C(=O)c1ccc(Cl)cc1)CC2 | 7.60 | 5.43 | Active | Active |
| COn1c(N[C@H](c2ccc(Cl)cc2)C(C)C)nc2c(c1=O)CN(C(=O)c1cc3ccccn3n1)CC2 | 7.89 | – | Active | Active |
| COn1c(N[C@@H](C)c2ccc(C(F)(F)F)cc2)nc2c(c1=O)CN(C(=O)c1ccc(C)s1)CC2 | 8.00 | 5.95 | Active | Active |
| COn1c(N[C@@H](C)c2ccc(C(F)(F)F)cc2)nc2c(c1=O)CN(C(=O)CSc1ccc(Cl)cc1)CC2 | 8.10 | 5.94 | Active | Active |
| COn1c(N[C@@H](C)c2ccc(C(F)(F)F)cc2)nc2c(c1=O)CN(C(=O)COc1ccc(Cl)cc1)CC2 | 8.10 | 6.17 | Active | Active |
